From patent US20100204113A1, “USE OF STRESSCOPIN-RELATED PEPTIDE AS A THERAPEUTIC AGENT” (priority 2007, published 2010)
No end group written: not given here.

Tested on: drug-resistant Mycobacterium tuberculosis
Settings: peptide 10 micrograms per ml, seven days

With “HPGSRIVLSLDVPIGLLQILLEQARARAAREQATTNARILARV-NH2 [Stresscopin-related peptide]” the “% inhibition” value was 0.0%.
